Test results reported in patent US20080193986A1, “Mutant strain of Amycolatopsis orientalis and process for preparing vancomycin hydrochloride” (priority 2007, published 2008).
Where a name gives a salt, the structure may show the parent alone.

Experiments:
[1] = Antimicrobial activity by analysis based on U.S. Pharmacopeia 28; details: dried vancomycin hydrochloride of Example 9
Procedure: (§1) Next, chilled absolute ethanol was added to the concentrate drop by drop until vancomycin hydrochloride was crystallized, the slurry was left in refrigerator for 12 hours to accelerate the crystallization, and then the slurry was filtered off. The filtered precipitate was dried in a vacuum dryer at 40° C. […] The analytical results are illustrated in FIG. 3 and FIG. 4.

[2] = Solubility of dried powder; format: physicochemical; details: dried vancomycin hydrochloride of Example 9
Procedure: as §1

Question: For `CN[C@H](CC(C)C)C(=O)N[C@H]1C(=O)N[C@@H](CC(N)=O)C(=O)N[C@H]2C(=O)N[C@H]3C(=O)N[C@H](C(=O)N[C@H](C(=O)O)c4cc(O)cc(O)c4-c4cc3ccc4O)[C@H](O)c3ccc(c(Cl)c3)Oc3cc2cc(c3O[C@@H]2O[C@H](CO)[C@@H](O)[C@H](O)[C@H]2O[C@H]2C[C@](C)(N)[C@H](O)[C@H](C)O2)Oc2ccc(cc2Cl)[C@H]1O` [vancomycin hydrochloride], which antimicrobial activity [1] is on record?
Answer: 1050 U

Question: And the solubility of powder [2]?
Answer: freely soluble
